Holding throughout (test): relative viability (nuclei count vs DMSO), 5 days (fraction); higher = more cells survive
Compound in the assay “Cabozantinib + Olaparib”: COc1cc2nccc(Oc3ccc(NC(=O)C4(C(=O)Nc5ccc(F)cc5)CC4)cc3)c2cc1OC [Cabozantinib] + O=C(c1cc(Cc2n[nH]c(=O)c3ccccc23)ccc1F)N1CCN(C(=O)C2CC2)CC1 [Olaparib] (partner 8 µM)
The procedure, abridged:
(§1)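 For relative viability, nuclei counts in treated wells were divided by those in vehicle wells. Lung cancer cell lines had been pin-tool dosed in 1536-well plates the day after seeding and cultured for 5 days, then fixed and stained in one step (final 0.05% Triton X-100, 1% formaldehyde, 1 ug/ml Hoechst) and imaged at 4×. Doses were one drug alone or a fixed anchor-drug dose plus five library-drug doses (not always all listed) in √10 steps, and values are duplicate-plate medians.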

Compound in the assay “Zosuquidar + OSI-027”: O[C@@H](COc1cccc2ncccc12)CN1CCN([C@@H]2c3ccccc3[C@@H]3[C@H](c4ccccc42)C3(F)F)CC1 [Zosuquidar] + COc1cccc2cc(-c3nc([C@H]4CC[C@H](C(=O)O)CC4)n4ncnc(N)c34)[nH]c12 [OSI-027] (partner 0.5 µM)
The procedure, abridged:
as §1

Compound in the assay “Kobe2602 + Foretinib”: C1=CC(=CC=C1NC(=S)NNC2=C(C=C(C=C2[N+](=O)[O-])C(F)(F)F)[N+](=O)[O-])F [Kobe2602] + COc1cc2c(Oc3ccc(NC(=O)C4(C(=O)Nc5ccc(F)cc5)CC4)cc3F)ccnc2cc1OCCCN1CCOCC1 [Foretinib] (partner 0.25 µM)
The essentials: as §1

Compound in the assay “Kobe2602 + Crizotinib”: C1=CC(=CC=C1NC(=S)NNC2=C(C=C(C=C2[N+](=O)[O-])C(F)(F)F)[N+](=O)[O-])F [Kobe2602] + C[C@@H](Oc1cc(-c2cnn(C3CCNCC3)c2)cnc1N)c1c(Cl)ccc(F)c1Cl [Crizotinib] (partner 1 µM)
The essentials:
as §1

Consider UMC-11, for which the relative viability in the assay with Cabozantinib + Olaparib (first compound 0.02 µM) was determined as 0.399; with Cabozantinib + Olaparib (first compound 0.06325 µM) it was 0.304; with Cabozantinib + Olaparib (first compound 0.2 µM) it was 0.502; with Cabozantinib + Olaparib (first compound 0.6325 µM) it was 0.312; with Cabozantinib + Olaparib (first compound 2 µM), 0.391; with Zosuquidar + OSI-027 (first compound 0.01 µM), 0.439. Also, the relative viability was 0.511 with Zosuquidar + OSI-027 (first compound 0.03162 µM); 0.462 in the assay with Zosuquidar + OSI-027 (first compound 0.1 µM); 0.483 with Zosuquidar + OSI-027 (first compound 0.3162 µM); 0.501 with Zosuquidar + OSI-027 (first compound 1 µM); 1.03 in the assay with Kobe2602 + Foretinib (first compound 0.2 µM); 0.957 with Kobe2602 + Foretinib (first compound 0.6325 µM). For the same cell line, the relative viability is 0.96 with Kobe2602 + Foretinib (first compound 2 µM); 0.953 with Kobe2602 + Foretinib (first compound 6.325 µM); 1.08 with Kobe2602 + Foretinib (first compound 20 µM); 0.578 with Kobe2602 + Crizotinib (first compound 0.2 µM); 0.545 with Kobe2602 + Crizotinib (first compound 0.6325 µM); 0.672 with Kobe2602 + Crizotinib (first compound 2 µM). Besides, the relative viability with Kobe2602 + Crizotinib (first compound 6.325 µM) came to 0.619; in the assay with Kobe2602 + Crizotinib (first compound 20 µM), 0.639.

The values above are taken from the supplement of paper PMC10307832.
